According to PubChem BioAssay (NCI):
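Method: 48-hour compound exposure of cells in 96-well plates, five concentrations, linear interpolation of endpoints. The concentration for full growth arrest is given as TGI.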

Legend:
Assay in all cases: growth of human tumour cells (NCI), 48 h
[1] = test system: CCRF-CEM leukemia
[2] = test system: CAKI-1 renal
[3] = test system: TK-10 renal
[4] = test system: U251 CNS
[5] = test system: SN12C renal
[6] = test system: A549 NSCLC
[7] = test system: RPMI-8226 leukemia
[8] = test system: DLD-1 colon
[9] = test system: SNB-19 CNS
[10] = test system: HCC-2998 colon
[11] = test system: NCI-H23 lung
[12] = test system: UACC-257 melanoma
[13] = test system: M14 melanoma
[14] = test system: M19-MEL melanoma
[15] = test system: MDA-MB-435
[16] = test system: T-47D breast
[17] = test system: DU-145 prostate

## C=C[C@@]1(C)CCC2(O)C(CCC3C2(C)CCC[C@@]3(C)COC(=O)CC(=O)OC)C1 (some centres undefined)
[1]
  TGI: > 100 µM
[2]
  TGI: > 100 µM
[3]
  TGI: 73.3 µM
[4]
  TGI: 32.2 µM
[5]
  TGI: 38.2 µM
[6]
  TGI: 35.9 µM
[7]
  TGI: 47 µM
[8]
  TGI: 32.1 µM
[9]
  TGI: > 100 µM
[10]
  TGI: > 100 µM
[11]
  TGI: 37.4 µM
[12]
  TGI: 36.5 µM
[13]
  TGI: 32.7 µM

## CC(=O)OCCOCNC(=S)N/N=C/c1ccc2ccccc2n1
[1]
  TGI: > 100 µM
[3]
  TGI: > 100 µM
[4]
  TGI: > 100 µM
[14]
  TGI: > 100 µM
[5]
  TGI: > 100 µM
[6]
  TGI: > 100 µM
[7]
  TGI: > 100 µM
[8]
  TGI: > 100 µM
[9]
  TGI: > 100 µM
[10]
  TGI: > 100 µM
[11]
  TGI: > 100 µM
[12]
  TGI: > 100 µM
[13]
  TGI: > 100 µM

## CC12CCC([C@H](N3CCOCC3)/C1=N\OCCN1CCCC1)C2(C)C (some centres undefined)
[1]
  TGI: > 100 µM
[2]
  TGI: > 100 µM
[3]
  TGI: > 100 µM
[4]
  TGI: > 100 µM
[14]
  TGI: > 100 µM
[5]
  TGI: > 100 µM
[6]
  TGI: > 100 µM
[7]
  TGI: > 100 µM
[8]
  TGI: > 100 µM
[9]
  TGI: > 100 µM
[10]
  TGI: > 100 µM
[11]
  TGI: > 100 µM
[12]
  TGI: > 100 µM
[13]
  TGI: > 100 µM

## CC1(c2cccc3c2C2(O)C=CC4(CCC32)OCCO4)OCCO1 (centres undefined)
[1]
  TGI: > 100 µM
[2]
  TGI: > 100 µM
[3]
  TGI: > 100 µM
[4]
  TGI: > 100 µM
[14]
  TGI: > 100 µM
[5]
  TGI: > 100 µM
[6]
  TGI: > 100 µM
[7]
  TGI: > 100 µM
[8]
  TGI: > 100 µM
[9]
  TGI: > 100 µM
[10]
  TGI: > 100 µM
[11]
  TGI: > 100 µM
[12]
  TGI: > 100 µM
[13]
  TGI: > 100 µM

## CC1=CCC2(C#N)CCC1C2O (centres undefined)
[1]
  TGI: > 100 µM
[2]
  TGI: > 100 µM
[3]
  TGI: > 100 µM
[4]
  TGI: > 100 µM
[14]
  TGI: > 100 µM
[5]
  TGI: > 100 µM
[6]
  TGI: > 100 µM
[7]
  TGI: > 100 µM
[8]
  TGI: > 100 µM
[9]
  TGI: > 100 µM
[10]
  TGI: > 100 µM
[12]
  TGI: > 100 µM
[13]
  TGI: > 100 µM

## COc1ccc(-c2cnoc2-c2ccc(OC)c(OC)c2)cc1OC
[1]
  TGI: 13.4 µM
[2]
  TGI: > 68.1 µM
[3]
  TGI: 43.2 µM
[4]
  TGI: 11.4 µM
[14]
  TGI: 11.3 µM
[5]
  TGI: 33.7 µM
[6]
  TGI: > 44.8 µM
[7]
  TGI: 18.5 µM
[8]
  TGI: > 63.7 µM
[9]
  TGI: 98.6 µM
[11]
  TGI: 3.97 µM
[12]
  TGI: > 100 µM
[13]
  TGI: 5.39 µM

## COc1ccc(N(C)CN(C)c2nc(N(C)C)nc(N(C)C)n2)cc1
[1]
  TGI: > 100 µM
[2]
  TGI: > 100 µM
[3]
  TGI: > 100 µM
[4]
  TGI: > 100 µM
[14]
  TGI: > 100 µM
[5]
  TGI: > 100 µM
[6]
  TGI: > 100 µM
[7]
  TGI: > 100 µM
[8]
  TGI: > 100 µM
[9]
  TGI: > 100 µM
[11]
  TGI: > 100 µM
[12]
  TGI: > 100 µM
[13]
  TGI: > 100 µM

## CCCCCCCC(=O)OC[C@@H](C[As](=O)(O)O)OC(=O)CCCCCCC
[1]
  TGI: 9.55 µM
[4]
  TGI: 19.9 µM
[14]
  TGI: 31 µM
[5]
  TGI: 23.3 µM
[6]
  TGI: 19.3 µM
[7]
  TGI: 46.2 µM
[8]
  TGI: 27.5 µM
[9]
  TGI: 27.3 µM
[10]
  TGI: 29.2 µM
[11]
  TGI: 26.4 µM
[12]
  TGI: 35.6 µM
[13]
  TGI: 29.6 µM

## COC(=O)C1CC(=O)CCC1c1ccccc1 (centres undefined)
[1]
  TGI: > 100 µM
[2]
  TGI: > 100 µM
[3]
  TGI: > 100 µM
[4]
  TGI: > 100 µM
[14]
  TGI: > 100 µM
[5]
  TGI: > 100 µM
[6]
  TGI: > 100 µM
[7]
  TGI: > 100 µM
[8]
  TGI: > 100 µM
[9]
  TGI: > 100 µM
[10]
  TGI: > 100 µM
[11]
  TGI: > 100 µM
[12]
  TGI: > 100 µM
[13]
  TGI: > 100 µM

## C=CCC1C(=O)C(C(=O)OC)N2CCc3c([nH]c4ccccc34)C12 (centres undefined)
[1]
  TGI: > 100 µM
[2]
  TGI: > 100 µM
[3]
  TGI: > 100 µM
[4]
  TGI: > 100 µM
[14]
  TGI: > 100 µM
[5]
  TGI: > 100 µM
[6]
  TGI: > 100 µM
[7]
  TGI: > 100 µM
[8]
  TGI: > 100 µM
[9]
  TGI: > 100 µM
[10]
  TGI: > 100 µM
[11]
  TGI: > 100 µM
[13]
  TGI: > 100 µM

## C#CCSc1nc(N)c2ncn(C3OC(CO)C(O)C3O)c2n1 (centres undefined)
[1]
  TGI: > 100 µM
[3]
  TGI: > 100 µM
[4]
  TGI: > 100 µM
[14]
  TGI: > 100 µM
[5]
  TGI: > 100 µM
[6]
  TGI: > 100 µM
[7]
  TGI: > 100 µM
[8]
  TGI: > 100 µM
[9]
  TGI: > 100 µM
[10]
  TGI: > 100 µM
[11]
  TGI: > 100 µM
[12]
  TGI: > 100 µM

## O=C1CSC(/C(=C/c2ccccc2)c2nc3ccccc3[nH]2)=N1
[1]
  TGI: > 100 µM
[2]
  TGI: > 100 µM
[3]
  TGI: > 100 µM
[4]
  TGI: 74.4 µM
[14]
  TGI: > 100 µM
[5]
  TGI: > 100 µM
[6]
  TGI: > 100 µM
[8]
  TGI: > 100 µM
[9]
  TGI: > 100 µM
[10]
  TGI: > 100 µM
[11]
  TGI: 92.7 µM
[12]
  TGI: > 100 µM
[13]
  TGI: > 100 µM

## C#CCn1c(=O)ccn(/C(=C\C(=O)OCC)C(=O)OCC)c1=O
[1]
  TGI: > 20.9 µM
[2]
  TGI: 2.4 µM
[3]
  TGI: 3.45 µM
[4]
  TGI: 39.8 µM
[15]
  TGI: 22.9 µM
[16]
  TGI: 12.7 µM
[5]
  TGI: > 58 µM
[6]
  TGI: 43.8 µM
[7]
  TGI: > 23.9 µM
[9]
  TGI: 36.4 µM
[10]
  TGI: 35.9 µM
[11]
  TGI: 31.8 µM
[12]
  TGI: 29.5 µM
[17]
  TGI: 31.1 µM
[13]
  TGI: 10.3 µM

## O=C(CC(=O)C(=O)Nc1ccccc1)CC(c1ccccc1)c1c(O)c2ccccc2oc1=O (centres undefined)
[1]
  TGI: > 100 µM
[2]
  TGI: > 100 µM
[3]
  TGI: > 100 µM
[14]
  TGI: > 100 µM
[6]
  TGI: > 100 µM
[8]
  TGI: > 100 µM
[9]
  TGI: > 100 µM
[10]
  TGI: > 100 µM
[13]
  TGI: > 100 µM

## CCOC(=O)N1CCN(c2c(C)nc(C)[nH]c2=O)CC1
[1]
  TGI: > 100 µM
[2]
  TGI: > 100 µM
[3]
  TGI: > 100 µM
[4]
  TGI: > 100 µM
[15]
  TGI: > 100 µM
[16]
  TGI: > 100 µM
[5]
  TGI: > 100 µM
[6]
  TGI: > 100 µM
[7]
  TGI: > 100 µM
[9]
  TGI: > 100 µM
[10]
  TGI: > 100 µM
[11]
  TGI: > 100 µM
[12]
  TGI: > 100 µM
[17]
  TGI: > 100 µM
[13]
  TGI: > 100 µM

## O=C(O)c1c[nH]c2c(=O)[nH]cnc12
[1]
  TGI: > 100 µM
[2]
  TGI: > 100 µM
[3]
  TGI: > 100 µM
[14]
  TGI: > 100 µM
[5]
  TGI: > 100 µM
[6]
  TGI: > 100 µM
[7]
  TGI: > 100 µM
[8]
  TGI: > 100 µM
[9]
  TGI: > 100 µM
[10]
  TGI: > 100 µM
[11]
  TGI: > 100 µM
[12]
  TGI: > 100 µM
[13]
  TGI: > 100 µM

## Cn1c(NN)nc(-c2ccc([N+](=O)[O-])cc2)c(C#N)c1=O
[1]
  TGI: > 100 µM
[2]
  TGI: 61.6 µM
[3]
  TGI: 27.4 µM
[4]
  TGI: 30.8 µM
[15]
  TGI: 32.8 µM
[16]
  TGI: 30.9 µM
[5]
  TGI: 29 µM
[6]
  TGI: 43.4 µM
[7]
  TGI: > 100 µM
[9]
  TGI: 26.3 µM
[10]
  TGI: 26.5 µM
[11]
  TGI: 26.2 µM
[12]
  TGI: 29.1 µM
[17]
  TGI: 30 µM
[13]
  TGI: 25 µM
